Measurements as given in ChEMBL document CHEMBL1130934, “Enantioselective synthesis and pharmacology of 11-hydroxy-(1'S,2'R)-dimethylheptyl-delta 8-THC” (Bioorg Med Chem Lett, 1998).

Columns and labels:
[1] = species on record: Mus musculus; assay: Compound was evaluated in mouse model for cannabimimetic activity, expressed as as effective dose for hypothermia (rectal temperature, RT); format: functional
[2] = biological target: T1, Cannabinoid receptor 1 (Rattus norvegicus, UniProt P20272); assay: Binding affinity for the Cannabinoid receptor using [3H]CP-55940 as radioligand
T1 sequence (P20272 whole entry): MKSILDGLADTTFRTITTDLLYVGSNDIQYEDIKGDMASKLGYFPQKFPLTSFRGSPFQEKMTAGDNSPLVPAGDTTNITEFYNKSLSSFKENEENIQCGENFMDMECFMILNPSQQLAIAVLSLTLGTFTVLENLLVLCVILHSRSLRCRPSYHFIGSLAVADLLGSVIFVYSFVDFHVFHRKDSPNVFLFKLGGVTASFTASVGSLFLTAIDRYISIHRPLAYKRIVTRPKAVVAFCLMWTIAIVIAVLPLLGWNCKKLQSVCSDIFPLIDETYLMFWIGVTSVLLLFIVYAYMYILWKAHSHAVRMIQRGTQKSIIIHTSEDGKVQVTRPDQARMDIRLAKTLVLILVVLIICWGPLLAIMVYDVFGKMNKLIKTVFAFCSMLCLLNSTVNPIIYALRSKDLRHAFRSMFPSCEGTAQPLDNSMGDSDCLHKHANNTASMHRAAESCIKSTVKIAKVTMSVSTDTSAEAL

[3] = species on record: Mus musculus; assay: Compound was evaluated in mouse model for cannabimimetic activity, expressed as effective dose for spontaneous activity(SA); format: functional
[4] = species on record: Mus musculus; assay: Compound was evaluated in mouse model for cannabimimetic activity, expressed as as effective dose for antinociception (TF); format: functional
[5] = biological target: T1, Cannabinoid receptor 1; assay: Binding affinity for the cannabinoid brain receptor (CB1) using [3H]CP-55940

| SMILES | ED50 [1] | Ki [2] | ED50 [3] | ED50 [4] | Ki [5] |
| --- | --- | --- | --- | --- | --- |
| CCCCCCC(C)(C)c1cc(O)c2c(c1)OC(C)(C)[C@@H]1CC=C(CO)C[C@@H]21 | 0.05 µmol/kg | 0.73 nM | 0.01 µmol/kg | 0.02 µmol/kg | – |
| CCCCCCC(C)(C)c1cc(O)c2c(c1)OC(C)(C)[C@@H]1CC=C(C)C[C@@H]21 | 0.15 µmol/kg | – | 0.27 µmol/kg | 0.14 µmol/kg | 0.77 nM |
| CCCCC[C@@H](C)[C@H](C)c1cc(O)c2c(c1)OC(C)(C)[C@@H]1CC=C(C)C[C@@H]21 | 0.07 µmol/kg | – | 0.03 µmol/kg | 0.03 µmol/kg | 0.46 nM |
| CCCCC[C@@H](C)[C@H](C)c1cc(O)c2c(c1)OC(C)(C)[C@@H]1CC=C(CO)C[C@@H]21 | 0.02 µmol/kg | – | 0.01 µmol/kg | 0.03 µmol/kg | 0.49 nM |
